# From patent US10829528B2, “Therapeutic agents for neurological and psychiatric disorders” (VIB VZW, priority 2016, dated 2020)
# Experiments:
# GABABR1a = biological target: T1, GABABR1a (Homo sapiens, UniProt Q9UBS5); assay: Cell surface binding assay: Fc-tagged APP proteins applied to GABABR-transfected HEK293 cells, bound Fc detected by immunofluorescence; format: cell-based; details: Fc-tagged proteins 500 nM, 1 hr at RT; GFP-transfected cells as negative control
# T1 construct: expressed in transfected cells; host or cells: HEK293T
# T1 sequence (Q9UBS5 20-591 limits assumed): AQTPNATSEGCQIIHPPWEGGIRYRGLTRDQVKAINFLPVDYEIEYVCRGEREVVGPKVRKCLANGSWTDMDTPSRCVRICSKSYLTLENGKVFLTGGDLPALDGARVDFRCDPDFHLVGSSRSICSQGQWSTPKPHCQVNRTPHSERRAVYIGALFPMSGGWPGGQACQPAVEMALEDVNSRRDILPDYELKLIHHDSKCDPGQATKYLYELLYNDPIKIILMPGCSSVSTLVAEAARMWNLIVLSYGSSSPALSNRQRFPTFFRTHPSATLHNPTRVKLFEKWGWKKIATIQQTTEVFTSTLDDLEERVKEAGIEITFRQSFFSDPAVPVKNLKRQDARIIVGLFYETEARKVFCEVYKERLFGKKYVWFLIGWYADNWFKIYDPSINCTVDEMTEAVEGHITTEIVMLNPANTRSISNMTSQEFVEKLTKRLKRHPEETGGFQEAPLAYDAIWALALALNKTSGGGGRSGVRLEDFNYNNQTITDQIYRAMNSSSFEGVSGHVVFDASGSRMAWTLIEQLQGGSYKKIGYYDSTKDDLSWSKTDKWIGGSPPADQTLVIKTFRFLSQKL
# Procedure: To confirm the APPα-GABABR interaction and identify the interacting domains, we used a cell-based binding assay. Purified Fc-sAPPα (or its domains) were exogenously applied to GABABR-transfected HEK293 cells. Bound Fc-sAPPα was determined by immunofluorescence.
# (§1) We first determined which GABAB subunit and isoform sAPPα bound. The GABABR is comprised of two subunits, the GABABR1 and the GABABR2 subunit. GABABR1 is present as two main isoforms (1a and 1b), with the only difference between these isoforms being the presence of two protein-binding sushi repeats in the ectodomain of GABABR1a (FIG. 1A-B). […] The sequence of the Sushi domain 1 is […].
# HEK293T cells were transfected with GFP (as negative control) or pdisplay-GABABR-1a, -1b, or -2 plasmids using Fugene6 (Promega). Twenty-four hours after transfection, the cells were incubated with Fc (as negative control) or the various Fc-tagged APP proteins (500 nM, in Dulbecco's modified Eagle's medium [DMEM] supplemented with 20 mM HEPES [pH 7.4]) for 1 hr at RT. After three brief washes with DMEM/20 mM HEPES (pH 7.4), cells were fixed in 4% paraformaldehyde, 4% sucrose in PBS. […] Image thresholding was set with ImageJ software using constant settings per experiment and the area of Fc binding was measured relative to cell area.
# [1] = biological target: T2, sushi1 domain of GABABR1a (Homo sapiens, UniProt Q9UBS5); assay: Isothermal titration calorimetry (ITC) with purified sushi1; format: binding
# T2 construct: made in house
# T2 sequence (Q9UBS5 26-97): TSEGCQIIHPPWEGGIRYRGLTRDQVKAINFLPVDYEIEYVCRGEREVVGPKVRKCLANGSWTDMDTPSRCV
# Procedure: as §1
# All ITC experiments were carried out on a MicroCal iTC200 system. For ITC experiments involving APP constructs expressed in HEK293 cells, the purified GABABR1a-Sushi1 domain, sAPPα, CuBDAcD, AcD and CuBD constructs were buffer-exchanged by size exclusion chromatography in 20 mM Na-HEPES pH 7.0, 150 mM NaCl supplemented with 5 mM CaCl2. Concentrated samples were diluted and degassed before the experiment at the concentrations reported in the FIG. legends. sAPP fragments (all of them at 30 μM) were placed in the MicroCal sample cell and matching buffer was placed in the reference cell. Sushi1 (300 μM) was in the syringe and was injected into the cell in a series of 1 μL injections at 25° C. All the datasets were subtracted with a reference data consisting of serial injections of Sushi1 in the cell, containing buffer only under the same conditions. For ITC experiments involving synthetic APP peptides, the Sushi-1 protein was dialysed overnight to PBS buffer. […]
# [2] = test system: primary hippocampal neurons; assay: mEPSCs & mIPSCs in cultured primary hippocampal neurons (wild type); format: cell-based, mouse; details: acute application, 250 nM each
# Procedure: mEPSCs & mIPSCs are measured in cultured primary hippocampal neurons at baseline and following acute application of agonists. Excitatory terminals selectively express the sushi domain-containing GABABR1a isoform (ref18), where it functions to inhibit neurotransmitter release (ref 24). Acute exposure of primary hippocampal neurons from wild type mice to 30μM baclofen, a GABABR agonist, or 250 nM sAPPα (Fc cleaved) reduces the frequency of miniature excitatory postsynaptic currents (mEPSCs) by 68% (FIG. 8 a,b) and 39% (FIG. 8 c,d), respectively, with no effect on mEPSC amplitude (FIG. 8e). […] Acute application of 30 μM baclofen or 250 nM purified sAPPα reduces the frequency of miniature inhibitory postsynaptic currents (mIPSCs) by 63% (FIG. 8a, 9a) and 44% (FIG. 8c, 9b), respectively, which is blocked by pretreatment with the GABABR antagonist CGP55845 (CGP, 5 μM) (FIG. 8f, 9d). Application of sAPPα causes a minor (14%) reduction on mIPSC amplitude (FIG. 8e, 9c). […] Baclofen is known to reduce the frequencies of mEPSCs and mIPSCs, which we have also confirmed. […] To confirm that the agonist is acting through GABABR1a, the agonist is tested in cultures with shRNA mediated knockdown of GABABR1a or antisense oligonucleotides mediated exon skipping of the exon encoding the Sushi domain 1 of GABABR1a. Antagonists are tested by treatment in combination with the agonist, Baclofen. […] As an antagonist we test an antibody against the sushi domain sequence (SEQ ID No: 5): […] SWTDMDTPSRCV. An antibody specifically binding to this domain which acts as an antagonist increases the frequencies of mEPSCs and mIPSCs. sAPPα also reduces mEPSC and mIPSC frequency in App/Aplp1 dKO cultures (FIG. 8j, 9f), excluding the possibility that sAPPα interferes with a complex of full-length APP and GABABR1 to exert its effect on GABABR signaling.
# Hippocampal neurons were cultured from E18 C57/B16 wild type mice or APP/APLP1 dKO mice (provided by Ulrike Muller46) and plated on poly-D-lysine (Millipore), and laminin (Invitrogen) coated coverslips (Nalge Nunc International). Neurons were maintained in Neurobasal medium (Invitrogen) supplemented with B27, glucose, glutamax, penicillin/streptomycin (Invitrogen) and 25 μM β-mercaptoethanol.
# Single neurons from wild type or APP/APLP1 null mutant embryos (E18) were recorded within the large neuronal network at DIV 12-15. The intracellular whole-cell pipette medium contained (in mM): 136 KCl, 18 HEPES, 4 Na-ATP, 4.6 MgCl2, 15 Creatine Phosphate, 1 EGTA and 50 U/ml Phospocreatine Kinase (300 mOsm, pH 7.30). Regular external solution contained 2 mM/2 mM Ca2+/Mg2+(in mM: 140 NaCl, 2.4 KCl, 2 CaCl2), 2 MgCl2, 10 HEPES, 14 Glucose (300 mOsm, pH 7.30)) and TTX (1 μM). Pharmacological reagents (30 μM baclofen, 5 μM CGP), sAPLP1, full length sAPP and sAPP derived peptides (250 nM each) were bath applied (dissolved in external medium described above) using a separate gravity driven application inlet. Recordings were done in whole cell voltage clamp configuration at −70 mV with a double EPC-10 amplifier (HEKA Elektronik) under control of Patchmaster v2×32 software (HEKA Elektronik). Currents were low-pass filtered at 3 kHz and stored at 20 kHz. Patch pipettes were pulled from borosilicate glass using a multi-step puller (P-1000; Sutter Instruments). Pipette resistance ranged from 3 to 5 MΩ and was compensated to 75-80%. Only cells with series resistances <15 MΩ were included in analysis. All recordings were done at room temperature. Spontaneous events were detected using Mini Analysis program (Synaptosoft). mEPSCs and mIPSCs were separated on the basis of their distinct decay kinetics, using a threshold of 5 ms47. Baseline was determined from an average of 60 sec of recordings prior to protein or drug treatment. Effect of treatment was determined from an average of 30 sec recordings after 140 sec of protein or drug treatment.
# CA1 pyramidal neurons = assay: Long-term potentiation in hippocampal slices; format: cell-based; details: non-primed high frequency stimulation protocol for agonists
# Procedure: Long-term potentiation (LTP) is induced by stimulation of Schaffer collateral fibers and the response of CA1 pyramidal neurons is measured by extracellular recordings. For measuring antagonists, a primed burst stimulation protocol is used to activate GABABR receptors. Under this protocol, an antagonist blocks induction of LTP. For measuring agonists, a non-primed high frequency stimulation protocol is used.
substance,measurement,setting,value
"ED: Fc-fusion of the 33 aa extension domain, mouse APP695 195-227aa",binding to GABABR1a-expressing HEK293 cells (immunofluorescence),GABABR1a,sufficient for binding to GABABR1a
"GGADTDYADG (listed as Homo sapiens) [residues 211-220, synthetic peptide within the ExD, 211-220AA of APP695]",binding to sushi1 by ITC (in words),[1],fails to bind
NVDSADAEEDDSDVWWGGADTDYADGSEDKVVE (listed as Homo sapiens) [Extension domain of human sAPPα (33 amino acids)],effect on mEPSC frequency (in words),[2],reduces the frequencies of mEPSCs and mIPSCs
same,effect on mIPSC frequency (in words),[2],reduces the frequencies of mEPSCs and mIPSCs
same,effect on LTP,CA1 pyramidal neurons,facilitates LTP
